Test results from a melting point compilation (Tetko et al.; mined from patent text by program, amines drawn as free bases though some values may be those of a salt).

SMILES | melting point [°C]
FC(F)(F)c1cccc(C2=CCN(CCc3ccc4[nH]ccc4c3)CC2)c1 | 122 to 123
COC(=O)c1ccccc1C1=NC(C)C(=S)N1 (stereo not drawn) | 134 to 138
c1ccc2c(c1)CCCC2c1c[nH]cn1 (stereo not drawn) | 105 to 110
Cc1nc(-c2cccc(Cl)c2)c(CCC(=O)O)o1 | 159 to 160
NS(=O)(=O)c1ccc(-n2nc(C(F)(F)F)cc2-c2nc3ccc(F)cc3s2)cc1 | 260 to 261
Cc1ccc(NC(=O)C(C)(C)C)c(-c2cncc(Br)n2)c1 | 74 to 76
COc1cc([N+](=O)[O-])c(NCCCO)cc1O | 149
CSc1nc(C(C)(C)C)nn1C(=O)N(C)C | 51 to 53
COc1ccc2c(c1)C(CCNC(=O)C(F)(F)F)=C(c1ccccc1)C2 | 138 to 139
Nc1c(-c2ccccc2)sc2ccccc12 | 110 to 112
CCOC(=O)c1ccc(OCCCCCCc2cccc(O)c2O)cc1 | 45 to 47
C#CC(CC)(CC)NC(=O)C(CCN1CCN(c2ccccc2OC)CC1)c1ccccc1 (stereo not drawn) | 110 to 112
COCc1cccc(CNC(=O)c2nc3scc(COCc4ccc(C(=O)O)cc4)c3c(=O)[nH]2)c1 | 242 to 244
O=c1ccc(-c2c(-c3ccccc3)nn3ccccc23)nn1C1CCCCC1=NO (stereo not drawn) | 238 to 240
Cc1nc(-c2cccnc2)cs1 | 81
Oc1ncnc2nc(CC3CCN(CC4COc5ccccc5O4)CC3)n(Cc3ccc(F)cc3)c12 (stereo not drawn) | 175
COC(=O)CCCc1cc2nc(Cl)ccc2n1S(=O)(=O)c1ccc(C)c2ccccc12 | 118 to 120
CC(c1c[nH]cn1)C(N)CO (stereo not drawn) | 168
CCOC(=O)c1ccc2c(c1)C(=C1CCN(C)CC1)c1ccccc1CC2 | 85 to 87
O=S1(=O)c2cccc3cccc(c23)N1CCCN1CCN(c2ccc(Cl)cc2)CC1 | 120
CCN1c2ncc(CCc3ccncc3)cc2C(=O)N(C)c2ccc(Cl)nc21 | 158 to 159
Cc1cnc2n1-c1sc(CCCO)cc1C(c1ccccc1Cl)=NC2 | 131 to 134
CCOc1ccc2nc3ccc(C(=O)O)cn3c(=O)c2c1 | 260 to 265
COc1cc(-c2nccn2N=Cc2ccc(N(C)C)cc2)cc(OC)c1OC | 232
C=CCOc1cc(NC(=O)OC(C)(C)C)c([N+](=O)[O-])cc1I | 93 to 95
CCCCCCCCC1CC1C(N)=O (stereo not drawn) | 109 to 110

SMILES | melting point [°C]
CCNc1c(OC)cc(C(O)CS(C)(=O)=O)cc1OC (stereo not drawn) | 121 to 122
CCc1ccc(NC(=O)NCc2ccc3c(c2)CN(C2CCC(=O)NC2=O)C3=O)cc1 (stereo not drawn) | 263 to 265
Cc1ccc(-c2cc(C)cn2-c2ccc(S(N)(=O)=O)cc2)cc1 | 175 to 176
COc1cc(NC(C)=O)c(OC)cc1C#N | 165 to 168
CC1(n2cc(C(=O)O)c(=O)c3cc(F)c(N4CCC(N)C4)c(F)c32)CC1 (stereo not drawn) | > 300
CCC12CCC3=C(CC(C)c4cc(OC)ccc43)C1=CCC21OCCO1 (stereo not drawn) | 116 to 119
CS(=O)(=O)c1ccc(-n2nc(C(F)(F)F)cc2-c2ccc(F)cc2)cc1 | 127 to 129
Cc1nc2ccc(S(=O)(=O)n3c(COC(C)C(=O)O)cc4cc(Cl)ccc43)cc2s1 (stereo not drawn) | 106 to 108
N#CC1=C(c2ccccc2)Nc2ccccc2S1(=O)=O | 286 to 289
COc1cccc(-c2nc3c4ccccc4ccn3n2)c1 | 159 to 160
CN1CCCN(Cc2nc(-c3ccc4c(c3)Nc3ccccc3S4)cs2)CC1 | 135 to 137
O=C(NC(=S)Nc1nc(-c2ccc3c(c2)CCCC3)cs1)c1cccc2ccccc12 | 216 to 217
CCOC(=O)c1ccc(-c2ccc(-c3ccc(C(F)(F)F)cc3)s2)cc1 | 203 to 204
CN(C(=O)CCSC(c1ccccc1)(c1ccccc1)c1ccccc1)c1nnc(-c2cccnc2)s1 | 60 to 75
CNC(=O)n1cc(F)cnc1=O | 166
O=C(CCl)Nc1ccc(C(=O)N2CCc3cc(S(=O)(=O)n4cc(-c5ccccc5)[nH]c4=O)ccc32)cc1 | 188 to 189
CSc1c(C)nc(C(C)C)nc1O | 156
CC1(C)CC(=O)C1(Br)CC(Cl)(Cl)Cl (stereo not drawn) | 46 to 49
CNc1nc(Nc2ccc(Cl)c(Cl)c2)ncc1NS(=O)(=O)Cc1ccccc1 | 233 to 235
CCCc1nccn1S(=O)(=O)c1c[nH]cn1 | 163 to 164
O=C(N[C@H]1CCc2c(F)cc(F)cc2C1)C(F)(F)F | 160 to 161
CCC(=O)NC(C)(C)c1ccc(C(=O)Nc2cn3cc(Cl)ccc3n2)cc1 | 249 to 252
CCOC(=O)CNc1ncccc1NC(=O)c1cccc(F)c1 | 134 to 135
Cc1cc(Cl)ccc1NC(=S)N(C)OCC(=O)O | 110 to 113
COc1ccc([N+](=O)[O-])c(N2CCCC2)c1 | 46 to 48.5
COC(=O)Cn1c(C)ccc(NC(=O)OCc2ccccc2)c1=O | 115 to 116

SMILES | melting point [°C]
COC(=O)C(Cc1ccc(OC)c(C(=O)NCc2ccc(C(F)(F)F)cc2)c1)S(C)(=O)=O (stereo not drawn) | 144 to 145
O=C1CCCC2=C1C(c1ccc(Cl)c(C(F)(F)F)c1)C1=C(CCS1)N2 (single isomer, unassigned; (+)) | > 250
CCCC(=O)NC(C)c1nnc(C)[nH]c1=O (stereo not drawn) | 235 to 237
COC(=O)[C@H](CC(C)C)NC(=O)[C@@H]1CSC(=O)N1 | 125 to 126
CC(C)(C)[Si](O[C@@H]1CC(=O)C[C@H](O[Si](c2ccccc2)(c2ccccc2)C(C)(C)C)C1)(c1ccccc1)c1ccccc1 | 108 to 109
CN[C@H]1CC[C@H](CO)CC1 | 87 to 88
CSC1NC(=O)N(c2cccs2)C(=O)N1 | 220 to 222
O=C(CCc1ccc(Cl)cc1)Cn1ccnc1 | 172 to 174
COc1ccc(CN2CC(=O)Nc3cccc(Cl)c3C2=O)c(OC)c1 | 230 to 231
N#CC(=O)c1ccccc1CF | 41
COc1cc(OC)c(-c2csc(NC(=O)c3cc4ccccc4[nH]3)n2)c(OC)n1 | 285 to 287
COc1ccc(CN2CCCc3cc(O)c(OC)cc3C2)cc1 | 105 to 107
CCOC(=O)c1cnc2cc3c(cc2c1O)OCO3 | > 290
COc1nc(C)nc(NC(=O)NS(=O)(=O)c2ccccc2-n2nnnc2C)n1 | 207 to 209
CCCOC(=NNC(=O)OC)OCCC | 38.1 to 38.3
O=C(NCCCOc1ccccn1)c1cccs1 | 91 to 92
COc1c(OCc2ccccc2)cnc(CO)c1C | 70 to 73
O=C1NC(=O)C(Cc2ccccc2)N1 (stereo not drawn) | 187 to 189
Cn1cc(-c2cccc(Br)c2)c(=O)c(-c2ccccc2Cl)c1 | 177 to 179
COc1c(C)c(N)c2c(c1C)C(c1ccc(C(C)C)cc1)C(C)(C)O2 (stereo not drawn) | 111 to 112
Fc1ccc(C(Cl)=NNc2ccccc2)cc1 | 118 to 120
Cc1ccc(-c2[nH]c(-c3c(Cl)cccc3Cl)nc2-c2ccncc2)cc1 | 295 to 296
COc1ccn(-c2nc(C)c(C(=O)NCc3ccc(F)c(F)c3)s2)c(=O)c1 | 183 to 185
Cc1cccc2cc(N3CCN(C)CC3)[nH]c(=O)c12 | 224 to 225
NC(=NCC(F)(F)F)Nc1ccn(CCO)n1 | 82
CCC1CC(=O)N(Cc2cccc(NS(C)(=O)=O)c2)N=C1c1ccc(OC)c(OC)c1 (stereo not drawn) | 126

SMILES | melting point [°C]
CCC(=O)NCC1CC1c1cccc2nc(C)nn12 (stereo not drawn) | 118 to 119
CCC(OC(C)=O)C(C)[N+](=O)[O-] (stereo not drawn) | 73 to 75
COc1cc(CN2CCN(C(=S)C3(C)CCc4c(C)c(O)c(C)c(C)c4O3)CC2)cc(OC)c1OC (stereo not drawn) | 82
OCCc1nccn1CCCCc1ccc(O)cc1 | 75 to 77
Cc1ccc(S(=O)(=O)NCCCCOc2ccc(C#N)cc2)cc1 | 107 to 108
O=C(CCN1CCCCC1)Nc1cccc([N+](=O)[O-])c1 | 95 to 96
COCOc1cc(OC)ccc1C(=O)c1ccc(OCc2nc(-c3ccccc3)oc2C)cc1 | 119 to 120
CSc1nn2c(Cl)cc(Cl)nc2c1S(=O)(=O)c1ccccc1 | 193 to 197
CCCC1=C([N+](=O)[O-])C(c2cccc3ccccc23)c2c[nH]nc2N1 (stereo not drawn) | 226
COc1cccc(CSCCNC(=O)c2c(Cl)cccc2Cl)c1OC | 108 to 110
CCCCCCCCc1ccc(NC2=NCCS2)cc1 | 82 to 84
NS(=O)(=O)c1ccc(-n2nc(CNC(=O)Nc3cccc(C(F)(F)F)c3)cc2-c2ccccc2)cc1 | 185 to 190
COCCc1sc2ncnc(N)c2c1-c1ccc(N(C(N)=O)c2ccccc2C)cc1 | 217 to 219
COc1ccc(CN2C(=O)C(C)(c3cc(COCCO)ccc3Cl)c3cc(Cl)ccc32)c(OC)c1 (stereo not drawn) | 53
CC(=O)N(O)C(C)c1cccc(Nc2ccccc2-c2nnc(N)o2)c1Cl (stereo not drawn) | 142 to 146
NC(=O)c1cc2c(C=Cc3ccccc3)cncc2s1 | 257 to 258
O=C1CC2(CCCC2)c2ccc([N+](=O)[O-])cc21 | 104
CC1Sc2nccn2C1(C)C(O)CCc1ccco1 (stereo not drawn) | 144 to 145
CS(=O)(=O)c1ccc(-c2[nH]nc(OC3CCCC3=O)c2-c2ccc(F)cc2)cc1 (stereo not drawn) | 96 to 99
CSc1cc(-c2ccc(C(F)(F)F)cc2)nc(-c2cccc(C(F)(F)F)c2)c1 | 98.5
COC1C(O)C(CO)OC1n1cc(C(F)(F)F)c(=O)[nH]c1=O (stereo not drawn) | 192 to 194
CN1C(C)(C)CC(OC(=O)NNC(=O)OC2CC(C)(C)N(C)C(C)(C)C2)CC1(C)C | 189 to 191
COc1ccc2c(c1)cc(-c1nnn(Cc3cccc(OCc4ccc5ccccc5n4)c3)n1)c(=O)n2CCCCl | 150 to 152
COc1ccc(CNC(=O)[C@@H](NC(=O)[C@H](NCc2cccc3ccccc23)[C@H](O)[C@H](Cc2ccccc2)NC(=O)OC(C)(C)C)C(C)C)c(O)c1 | 95 to 98
O=C/C=C/c1ccc(C(F)(F)F)cc1 | 60 to 61
